Experimental data from patent publication US20080207885A1, “Method for site-specific labeling of RNA using a deoxyribozyme” (priority 2007, published 2008).
{App} = adenylated (5'-5' adenylyl pyrophosphate) terminus

What was measured:
Assay type in all cases: biochemical
[1] = system: 10DM24 deoxyribozyme; test: Ligation with full-length R oligonucleotide as substrate, varied 5′-terminal nucleotide; conditions: for kobs: full-length R substrate, deoxyribozyme nucleotide changed to maintain Watson-Crick complementarity
Description: (§1) General Description of Kinetic Assays. All kinetic assays with the 10DM24 deoxyribozyme and its variants were performed according to established methods (Flynn-Charlebois, et al. (2003) supra; Wang and Silverman (2003) supra). The 5′-^32P-labeled RNA substrate (L for “left-hand substrate”) that provides the branch-site adenosine was the limiting reagent relative to 10DM24 (E) and the truncated cofactor RNA (RΔ; R originally derived from “right-hand substrate”). The ratio L:E:RΔ was 1:10:30, with 0.25 μM 10DM24. The cofactor RΔ was 5′-phosphorylated unless otherwise stated. The RNA substrate L, deoxyribozyme 10DM24 and cofactor RΔ were annealed in 5 mM HEPES, pH 7.5, 15 mM NaCl, 0.1 mM EDTA by heating at 95° C. for 3 minutes and cooling on ice for 5 minutes. The ligation reactions were performed with the appropriate concentration of NTP substrate (0.05-50 mM) at a final buffer concentration of 100 mM CHES, pH 9.0, 150 mM NaCl, 2 mM KCl, and 40-400 mM MgCl2 at 37° C. for up to 5 hours. The combination of 1 mM NTP and 40 mM MgCl2 was defined as “standard incubation conditions”; 10 mM NTP and 150 mM MgCl2 was defined as “enhanced incubation conditions”. At appropriate timepoints, aliquots were removed from the sample, quenched into stop solution (80% formamide, 1× TB [89 mM each Tris and boric acid, pH 8.3], and 50 mM EDTA containing 0.025% bromophenol blue and xylene cyanol) and stored at −20° C. prior to analysis. Samples were separated by 20% denaturing PAGE at 30 W for 115 minutes and imaged with a PHOSPHORIMAGER. The resulting data were fit to the equation yield=Y·(1−e^−kt), where k=kobs and Y=final yield.
The generality of the ligation reaction using other NTP substrates in place of GTP was also determined. The analogous reaction with the full-length R oligonucleotide as substrate proceeded well when a 5′-terminal G was present (kobs 0.51 min^−1 for 5′-AppG), with only three-fold reduced rate with 5′-AppA (kobs 0.18 min^−1). The RNA substrate with 5′-AppC reacted 20-fold more slowly than 5′-AppG, but still gave high yield (kobs 0.024 min^−1; 89% in 3 hours), whereas the yield with 5′-AppU was very poor (kobs 0.002 min^−1; 9% in 3 hours). It is noted that in all cases, the corresponding deoxyribozyme nucleotide was changed to maintain Watson-Crick complementarity.

[2] = system: 10DM24-C44T mutant deoxyribozyme; test: Ligation of NTP substrate with 10DM24 variant in which the terminal P4 nucleotide is changed C→T, cofactor RΔ; conditions: for krel = kobs,NTP*/kobs,NTP: relative to ATP
Description: as §1
Focus was then placed on the purine NTPs (GTP, ATP) and their derivatives. When 1 mM ATP was provided as a small molecule substrate in place of GTP using the original 10DM24 sequence and RΔ, no reaction was observed (<1% in 5 hours). […] Furthermore, the kobs increased sixteen-fold to 0.013 min^−1 under enhanced conditions with 10 mM ATP (82% yield in 3 hours).

[3] = system: 10DM24 deoxyribozyme; test: 10DM24-catalyzed ligation of small-molecule NTP substrate to branch-site adenosine of RNA substrate L with cofactor RΔ; conditions: for kobs,enh/kobs,std: GTP series; for krel = kobs,NTP*/kobs,NTP: relative to GTP
Description: as §1
Use of Free NTPs as Substrates. It was determined whether 10DM24 could catalyze ligation with free GTP as a substrate (see FIG. 1B), thereby transferring guanosine 5′-monophosphate (GMP) to the branch-site adenosine 2′-hydroxyl group. When RΔ, an oligoribonucleotide cofactor that corresponds to all of the remaining nucleotides of R, was added to 10DM24 along with GTP, ligation was efficient (FIG. 8; 94% yield in 5 hours and kobs 0.034 min^−1 under the standard incubation conditions of 1 mM GTP and 40 mM MgCl2 at pH 9.0, 37° C.). The RNA product with the single added guanosine at the branch-site adenosine was PAGE-purified and the identity confirmed by partial alkaline hydrolysis (50 mM NaHCO3 at 95° C. for 5 minutes) and MALDI mass spectrometry (m/z calcd. 5433, found 5437±5).

[4] = system: 10DM24 deoxyribozyme; test: Ligation of GTP or pppGpG in presence of shorter cofactor RΔΔ; conditions: RΔΔ cofactor, 20 mM NTP and 150 mM MgCl2, pH 9.0, 37° C.
Description: It was subsequently shown that a binding site for an NTP cofactor can be located adjacent to the substrate binding site. This was achieved by removing an additional nucleotide from the RΔ cofactor, forming the shorter RΔΔ cofactor which required two added nucleotides to reconstitute the complete P4 region (FIG. 10). The 10DM24-catalyzed ligation reaction of GTP in the presence of the two-nucleotide short cofactor RΔΔ was performed with the 5′-^32P-labeled RNA substrate (L) that provides the branch-site adenosine as the limiting reagent. For kinetic assays, the ratio of L:E:RΔΔ was 1:10:30 with 0.25 μM deoxyribozyme (E). For isolation of the reaction products, the ratio L:E:RΔΔ was 1:2:3 with 1.5 μM deoxyribozyme. The reaction was performed under the enhanced incubation conditions with 20 mM GTP and 150 mM MgCl2 in 100 mM CHES, pH 9.0, 150 mM NaCl, and 2 mM KCl at 37° C. for up to 7 hours. […] Both products were isolated and shown by partial alkaline hydrolysis to be branched with the connectivities A-G and A-GG (where A is the branch-site adenosine).
It was contemplated that the new A-GG product was formed by initial templated but otherwise uncatalyzed synthesis of a GG dinucleotide (i.e., pppGpG) from two GTP molecules, followed by 10DM24-catalyzed branch formation using this dinucleotide. […] The reaction was performed under the enhanced incubation conditions of 20 mM GTP and 150 mM MgCl2. […] The pppGpG dinucleotide was synthesized independently using T7 RNA polymerase (Huang, et al. (1998) supra) and led solely to the A-GG product. Although the pppGpG substrate had Kd,app of >1 mM with RΔΔ, similar to Kd,app for GTP with RΔ, the ligation reaction with pppGpG and RΔΔ had kobs six-fold higher than for the analogous reaction with GTP and RΔ (Table 8).
Similar experiments were performed using the mutant 10DM24 deoxyribozyme that has CTTT rather than CCTT in the P4 region (FIG. 11). For the DNA-catalyzed ligation of pppGpG, the 5′-^32P-labeled RNA with the branch-site adenosine (L) was incubated with the 10DM24 deoxyribozyme (E) and the cofactor RΔΔ in the ratio of L:E:RΔΔ=1:10:30 in the presence of 1 mM pppGpG and 40 mM MgCl2 in 100 mM CHES pH 9.0, 150 mM NaCl, and 2 mM KCl at 37° C. The analysis of the ligation reaction was performed as described herein. […] This is consistent with the model that pppGpG and the first two nucleotides of RΔΔ together reconstitute the P4 helix. When the ligation reaction with pppGpG was tested in the presence of RΔ instead of RΔΔ, the ligation product A-GG was formed, but with a 10-fold decrease in kobs (squares in FIG. 11). Because RΔ provides an extraneous G nucleotide when combined with pppGpG (see legend of FIG. 11), some disruption in activity is perhaps anticipated. […] This is consistent with the observation that GTP was also not a substrate for the 10DM24-C44T mutant deoxyribozyme.
The ligation reaction of pppGpG was also performed using a variety of pppGpG concentrations with the parent 10DM24 deoxyribozyme in the presence of RΔΔ and 40 mM MgCl2. In FIG. 12, the kobs values are plotted versus [pppGpG] and fit to kobs=kmax·[pppGpG]/(Kd,app+[pppGpG]). The Kd,app for pppGpG was >1 mM.

[5] = enhanced incubation conditions: 10 mM NTP, 150 mM MgCl2, pH 9.0, 37° C.
[6] = standard incubation conditions: 1 mM NTP, 40 mM MgCl2, pH 9.0, 37° C., RΔ, ATP series
[7] = enhanced incubation conditions: 10 mM NTP, 150 mM MgCl2, 100 mM CHES pH 9.0, 37° C.
[8] = standard incubation conditions: 1 mM NTP, 40 mM MgCl2, 100 mM CHES pH 9.0, 150 mM NaCl, 2 mM KCl, 37° C., RΔ
[9] = standard conditions except with 50 mM CHES

Row | Molecule | kobs,enh/kobs,std ([2]; ATP series) | ligation yield %, 3 h ([2]; enhanced incubation conditions) [%] | kobs [2, 5] [min⁻¹] | krel = kobs,NTP*/kobs,NTP ([2]; enhanced incubation conditions) | ligation yield %, 5 h ([2]; standard incubation conditions) [%] | kobs [2, 6] [min⁻¹] | krel = kobs,NTP*/kobs,NTP ([2]; standard incubation conditions) | kobs,enh/kobs,std [3] | ligation yield %, 3 h ([3]; enhanced incubation conditions) [%] | kobs [3, 7] [min⁻¹] | krel = kobs,NTP*/kobs,NTP ([3]; enhanced incubation conditions) | ligation yield %, 5 h ([3]; standard incubation conditions) [%] | kobs [3, 8] [min⁻¹] | krel = kobs,NTP*/kobs,NTP ([3]; standard incubation conditions) | further results
1 | 5′-AppA: full-length R oligonucleotide substrate with 5′-terminal A (AGAAGAGAUGGCGACGG; RNA, 5' {App}, backbone not given here) | – | – | – | – | – | – | – | – | – | – | – | – | – | – | kobs [1]: 0.18 min⁻¹
2 | 5′-AppC: full-length R oligonucleotide substrate with 5′-terminal C (CGAAGAGAUGGCGACGG; RNA, 5' {App}, backbone not given here) | – | – | – | – | – | – | – | – | – | – | – | – | – | – | reacted more slowly than 5′-AppG [1]: 20 fold; ligation yield in 3 hours [1]: 89%; kobs [1]: 0.024 min⁻¹
3 | 5′-AppU: full-length R oligonucleotide substrate with 5′-terminal U (UGAAGAGAUGGCGACGG; RNA, 5' {App}, backbone not given here) | – | – | – | – | – | – | – | – | – | – | – | – | – | – | ligation yield in 3 hours [1]: 9%; kobs [1]: 0.002 min⁻¹
4 | Nc1nc(N)c2ncn(C3OC(COP(=O)(O)OP(=O)(O)OP(=O)(O)O)C(O)C3O)c2n1 (stereo not shown) [DTP, 2,6-diaminopurine ribonucleoside triphosphate] | 8 | 90 | 0.027 | 2.1 | 68 | 0.0032 | 4.0 | – | – | – | – | – | – | – | –
5 | Nc1nc2c(ncn2COCCOP(=O)(O)OP(=O)(O)OP(=O)(O)O)c(=O)[nH]1 [G^acv-TP, acyclovir triphosphate] | – | – | – | – | – | – | – | >7 | 14 | 0.0007 | 0.003 | <1 | <0.0001 | <0.0003 | kobs diminished relative to GTP [3]: ~300 fold
6 | O=P(O)(O)OP(=O)(O)OP(=O)(O)OC[C@H]1O[C@@H](n2cnc3c(O)ncnc32)[C@H](O)[C@@H]1O [ITP, inosine triphosphate] | – | – | – | – | – | – | – | 21 | 84 | 0.014 | 0.05 | 25 | 0.0007 | 0.02 | –
7 | Nc1ncnc2c1ncn2[C@@H]1O[C@H](COP(=O)(O)OP(=O)(O)OP(=O)(O)O)[C@@H](O)[C@@H]1O [ara-ATP, arabino-ATP] | 13 | 44 | 0.005 | 0.41 | 13 | 0.0004 | 0.50 | – | – | – | – | – | – | – | –
8 | Nc1ncc2ncn([C@H]3C[C@H](O)[C@@H](COP(=O)(O)OP(=O)(O)OP(=O)(O)O)O3)c2n1 [d2AP-TP] | >8 | 17 | 0.0008 | 0.06 | <1 | – | <0.1 | – | – | – | 0.003 | – | – | <0.0003 | kobs ([2]; standard conditions with 5′-OH-RΔ): <0.0001^[c] min^−1
9 | Nc1ncnc2c1ncn2[C@H]1C[C@H](O)[C@@H](COP(=O)(O)OP(=O)(O)OP(=O)(O)O)O1 [dATP] | 19 | 65 | 0.007 | 0.56 | 17 | 0.0004 | 0.50 | – | – | – | – | – | – | – | –
10 | Nc1nc2c(ncn2[C@H]2C[C@H](O)[C@@H](COP(=O)(O)OP(=O)(O)OP(=O)(O)O)O2)c(=O)[nH]1 [dGTP, 2′-deoxyGTP] | – | – | – | – | – | – | – | 4 | 90 | 0.081 | 0.31 | 88 | 0.020 | 0.60 | reaction products formed [4]: only the single-nucleotide addition product
11 | Nc1ncnc2c1ncn2[C@H]1CC[C@@H](COP(=O)(O)OP(=O)(O)OP(=O)(O)O)O1 [ddATP] | – | – | – | – | 25 | 0.0007 | 0.87 | – | – | – | – | – | – | – | –
12 | Nc1nc2c(ncn2[C@H]2CC[C@@H](COP(=O)(O)OP(=O)(O)OP(=O)(O)O)O2)c(=O)[nH]1 [ddGTP, 2′,3′-dideoxyGTP] | – | – | – | – | – | – | – | – | – | – | – | – | – | – | kobs [3, 9]: 0.013 min⁻¹; ligation yield %, 5 h [3, 9]: 85%; krel = kobs,NTP*/kobs,NTP [3, 9]: 0.38
13 | C2-C3-cleaved GTP [G^clv-TP] | – | – | – | – | – | – | – | >3 | 6 | 0.0003 | 0.001 | <1 | <0.0001 | <0.0003 | kobs diminished relative to GTP [3]: approximately 1000 fold
